42 compounds from the Deep4Chem optical property database can be followed below.

Values joined by “and” are separate entries in the source; they are usually repeats but may differ in a detail not shown here. Equal values may be shown once.

The data set in a line: photoluminescence quantum yield (fraction); solvent given as SMILES.

In turn, `Cc1nc(-c2cc(F)ccc2O)n2c1CCCC2` returned a photoluminescence quantum yield (in ClCCl) of 0.72.
With `COC1=[N+]2C(=C(c3ccccc3)c3ccc(OC)n3[B-]2(F)F)C=C1SC#N`, the photoluminescence quantum yield reads like this: (in CC#N) 0.11; (in CCCCCC) 0.15; (in CCOC(C)=O) 0.14; (in CO) 0.14; (in ClCCl) 0.19.
In the case of `CC1(C)c2ccccc2N(c2ccc(-c3nc(C#N)c(C#N)nc3-c3ccc(N4c5ccccc5C(C)(C)c5ccccc54)cc3)cc2)c2ccccc21`, the photoluminescence quantum yield came to 0.2 (in Cc1ccccc1) and 0.67 (in c1cc(-c2cccc(-n3c4ccccc4c4ccccc43)c2)cc(-n2c3ccccc3c3ccccc32)c1).
For the compound `O=C1c2cccc3c(NCc4ccccn4)c4ccccc4c(c23)C(=O)N1Cc1ccccn1`, the photoluminescence quantum yield worked out at 0.07 (in C1CCOC1); 0.04 (in CCCCCC); 0.07 (in CCO); 0.08 (in Cc1ccccc1); 0.1 (in ClCCl).
The compound `Cc1ccc(C2C(C#N)=C(N)n3c(=O)c4ccccc4c(=O)n32)cc1` (centres undefined) came in with a photoluminescence quantum yield (in CS(C)=O) of 0.045.
Regarding `CN(C)c1ccc(/C=C/c2ncnc3ccccc23)cc1`, the photoluminescence quantum yield (in ClCCl) came to 0.07.
For `F[B-]1(F)n2c(cc(-c3ccccc3)c2-c2ccccc2)C(c2ccccc2)=C2C=C(c3ccccc3)C(c3ccccc3)=[N+]21`, the photoluminescence quantum yield came to 0.33 (in C1CCOC1), 0.34 (in CC#N), 0.64 (in Cc1ccccc1) and 0.4 (in ClCCl).
As to `CN1/C(=C/C=C/C2=[N+](C)c3ccccc3C2(C)C)Sc2ccccc21`, where the note is “in CS(C)=O”, the photoluminescence quantum yield is 0.07.
The compound `O=c1c2ccccc2[nH]c2ccccc12` came in with a photoluminescence quantum yield (in CS(C)=O) of 0.75.
Consider `C(=C\c1ccc(N(c2ccccc2)c2ccccc2)cc1)/c1ccc(-c2cc(-c3ccccn3)nc(-c3ccccn3)c2)cc1`, for which the photoluminescence quantum yield (in C1CCOC1) worked out at 0.55; the photoluminescence quantum yield (in C1COCCO1) stood at 0.46; the photoluminescence quantum yield (in CC#N) was 0.53; the photoluminescence quantum yield (in CCO) turned out to be 0.54; the photoluminescence quantum yield (in ClCCl) amounted to 0.55.
As to `O=Cc1ccc(-c2ccc(-c3nc4ccccc4s3)c(O)c2)s1`, the photoluminescence quantum yield by setting is: (in CCO) 0.0424; (in ClCCl) 0.0634; (in O) 0.07.
Compound `CC(C)(C)NC(=O)c1cccc2ccc3c4ccc(Cl)cc4c4cc(Cl)ccc4c3c12` yielded a photoluminescence quantum yield (in ClCCl) of 0.02.
Under “in Cc1ccccc1”, `CCCCOC(=O)c1cc(Oc2ccc(OC)cc2)c2c3c(Cl)cc4c5c(cc(Cl)c(c6c(Oc7ccc(OC)cc7)cc(C(=O)OCCCC)c1c26)c53)C(=O)N(c1c(C(C)C)cccc1C(C)C)C4=O` yielded a photoluminescence quantum yield of 0.55.
On to `c1ccc2c3c(ccc2c1)-c1cccc2cc4ccccc4c-3c12`, for which the photoluminescence quantum yield (in CCCCCCC) turned out to be 0.00078.
With `CCCCCCN1C(=O)c2cccc3cc(/N=C\c4ccc5c(c4)c4ccccc4n5CC)cc(c23)C1=O`, under “in ClC(Cl)Cl”, the photoluminescence quantum yield was found to be 0.021.
For the setting “in ClCCl”, `COC(=O)C1=C(C(=O)OC)C2(c3ccccc3-c3ccc([N+](=O)[O-])cc32)C2(/C=C/c3ccccc3)c3cc(OC)c(OC)cc3CCN12` (centres undefined) displayed a photoluminescence quantum yield of 0.00069.
Under “in Cc1ccccc1”, `c1ccc(N2c3ccc4ccccc4c3-c3c4ccccc4cc[n+]3[B-]2(c2ccccc2)c2ccccc2)cc1` yielded a photoluminescence quantum yield of 0.17.
Regarding `O=S1(=O)c2ccc(-c3ccc(-n4c5ccccc5c5ccccc54)cc3)cc2C2(c3ccccc3-c3ccccc32)c2cc(-c3ccc(-n4c5ccccc5c5ccccc54)cc3)ccc21`, the photoluminescence quantum yield (in ClCCl) is 0.86.
As to `c1ccc(N(c2ccccc2)c2ccc(-c3nc(-c4ccc(N(c5ccccc5)c5ccccc5)cc4)c4ccccc4n3)cc2)cc1`, under “in ClCCl”, the photoluminescence quantum yield is 0.3.
Regarding `CCCCCCCCCCCCC(CCCCCCCCCC)Cn1c2cc(/C=C/c3nc4ccccc4s3)c3cccc4c5cccc6c(/C=C/c7nc8ccccc8s7)cc1c(c65)c2c34` (centres undefined), the photoluminescence quantum yield reads like this: (in C1CCCCC1) 0.42; (in CC#N) 0.434; (in Cc1ccccc1) 0.398; (in ClCCl) 0.369.
Compound `CCCCCCn1c2ccccc2c2cc(/C=C/c3cc(=O)oc4cc(C)ccc34)ccc21` returned a photoluminescence quantum yield (in ClC(Cl)Cl) of 0.38.
As for `COc1cc(OC)cc(C2=C3C(C)=C(I)C(C)=[N+]3[B-](F)(F)n3c(/C=C/c4ccsc4)c(I)c(C)c32)c1`, the photoluminescence quantum yield (in C1CCOC1) came out at 0.3, the photoluminescence quantum yield (in CS(C)=O) came to 0.15 and the photoluminescence quantum yield (in ClCCl) was determined as 0.4.
The compound `Cc1cccc(-c2nc3sc4ccccc4c3s2)c1` displayed a photoluminescence quantum yield (in CS(C)=O) of 0.84.
For the compound `O=C1c2ccc(-c3ccc(N(c4ccc(-c5ccccc5)cc4)c4ccc(-c5ccccc5)cc4)cc3)cc2C(=O)c2ccc(-c3ccc(N(c4ccc(-c5ccccc5)cc4)c4ccc(-c5ccccc5)cc4)cc3)cc21`, the photoluminescence quantum yield amounted to 0.62 (in Cc1ccccc1) and 0.76 (in c1ccc2c(c1)c1ccccc1n2-c1ccc(-c2ccc(-n3c4ccccc4c4ccccc43)cc2)cc1).
Under “in ClCCl”, `c1ccc(-c2cc3c(-c4ccccc4)c4cccc5c(-c6ccccc6)cc6c(-c7ccccc7)c7cccc2c7c3c6c54)cc1` returned a photoluminescence quantum yield of 0.26.
Regarding `CCCCCCCCC1(CCCCCCCC)c2cc(-c3ccc(C(F)(F)F)cc3)ccc2-c2ccc(N(c3ccc(-n4c5ccccc5c5ccccc54)cc3)c3ccc4c(c3)C(CCCCCCCC)(CCCCCCCC)c3cc(-c5ccc(C(F)(F)F)cc5)ccc3-4)cc21`, the photoluminescence quantum yield is, setting by setting: (in C1CCOC1) 0.61; (in C1COCCO1) 0.71; (in CC#N) 0.46; (in CC(C)=O) 0.51; (in CCCCCC) 0.6; (in CCCCOCCCC) 0.67. The photoluminescence quantum yield by setting is: (in CCN(CC)CC) 0.52; (in CCOC(C)=O) 0.54; (in CCOCC) 0.76; (in CN(C)C=O) 0.52; (in CS(C)=O) 0.47; (in Cc1ccccc1) 0.67. The photoluminescence quantum yield (in ClC(Cl)Cl) was 0.47, the photoluminescence quantum yield (in ClCCl) is 0.57 and the photoluminescence quantum yield (in c1ccccc1) was 0.63.
`CCCCCCCCCCOc1cc(OCCCCCCCCCC)cc(C2=C3C(/C=C/c4ccc(OC)cc4)=CC(/C=C/c4ccc(OC)cc4)=[N+]3[B-](F)(F)n3c(/C=C/c4ccc(OC)cc4)cc(C=Cc4ccc(OC)cc4)c32)c1`: the photoluminescence quantum yield (in ClC(Cl)Cl) is 0.34.
As to `CCN(CC)c1ccc2c(c1)oc(=O)c1c(=O)oc3cc(C#Cc4ccc(C#N)cc4)ccc3c12`, the photoluminescence quantum yield is, setting by setting: (in CS(C)=O) 0.1; (in ClCCl) 0.69.
With `O=C(c1ccccc1)c1cc2ccc1CCc1ccc(cc1-c1ccc(N(c3ccccc3)c3ccccc3)cc1)CC2`, where the note is “in c1cc(-n2c3ccccc3c3ccccc32)cc(-n2c3ccccc3c3ccccc32)c1”, the photoluminescence quantum yield came out at 0.12.
With `F[B-]1(F)n2c(nc(-c3ccccc3)c2-c2ccccc2)-c2cccc[n+]21`, the photoluminescence quantum yield is, setting by setting: (in C1CCCCC1) 0.34; (in C1CCOC1) 0.17; (in C1COCCO1) 0.26; (in CC#N) 0.1 and 0.19; (in CCCCCC) 0.22 and 0.3; (in CO) 0.12 and 0.1. Further, the photoluminescence quantum yield is, setting by setting: (in ClC(Cl)Cl) 0.23 and 0.3; (in ClCCl) 0.15.
Consider `[O-][n+]1c(/C=C/c2ccc(/C=C/c3ccccc3)cc2)nc(N2CCOCC2)c2c1CCCC2`, for which the photoluminescence quantum yield (in ClCCl) was 0.04.
In the case of `Cc1c2c(c(C)c3ccccc13)-c1c-2ccc2nc3ccccc3nc12`, the photoluminescence quantum yield (in ClC(Cl)Cl) was 0.02.
`CCCCN1/C(=C/C=C/C2=[N+](C)c3ccccc3C2(C)C)C(C)(C)c2cc(OC)ccc21` came in with a photoluminescence quantum yield (in CS(C)=O) of 0.03.
`CC1=C2C=CC(c3ccccc3)=[N+]2[B-](F)(F)n2c1ccc2-c1ccccc1` gave a photoluminescence quantum yield (in ClCCl) of 0.64.
For `CCC1=C(C)C2=C(C)c3cc(I)c(I)n3[B-](F)(F)[N+]2=C1C`, the photoluminescence quantum yield (in C1CCCCC1) is 0.2; the photoluminescence quantum yield (in CC(C)=O) was determined as 0.13; the photoluminescence quantum yield (in CCO) was found to be 0.16; the photoluminescence quantum yield (in CCOC(C)=O) was determined as 0.15; the photoluminescence quantum yield (in CO) worked out at 0.13; the photoluminescence quantum yield (in OCC(F)(F)F) worked out at 0.11.
Compound `COc1cc(/C=C/c2ccccc2)cc(OC)c1` returned a photoluminescence quantum yield (in C1CCCCC1) of 0.18; a photoluminescence quantum yield (in CC#N) of 0.32; a photoluminescence quantum yield (in CC(C)O) of 0.27; a photoluminescence quantum yield (in CCCCOCCCC) of 0.26; a photoluminescence quantum yield (in CCOC(C)=O) of 0.29; a photoluminescence quantum yield (in CCOCC) of 0.27.
On to `COc1ccccc1-c1c(-c2ccccc2O)nc(-c2ccc(C(F)(F)F)cc2)n1-c1ccc(C)cc1`, for which the photoluminescence quantum yield by setting is: (in C1CCOC1) 0.01; (in CC(C)O) 0.01; (in CO) 0.01; (in CS(C)=O) 0.01; (in ClC(Cl)Cl) 0.01; (in ClCCl) 0.01.
Where the note is “in O”, `Cc1ccccc1C1=C2C=CC(=[N+](C)C)C=C2[Si](C)(C)c2cc(N(C)C)ccc21` yielded a photoluminescence quantum yield of 0.31.
With `CCOc1ccc2c(-c3nc(-c4ccccc4Cl)no3)cc(=O)oc2c1`, the photoluminescence quantum yield was 0.52 (in CCO) and 0.26 (in ClC(Cl)Cl).
As for `CCCc1cc2c(s1)-c1cc3c(cc1NB2c1ccccc1)-c1sc(CCC)cc1B(c1ccccc1)N3`, the photoluminescence quantum yield (in ClCCl) was found to be 0.19.
Turning to `Cc1cc(C)c2c(c1)c1cc(C)cc(C)c1n2-c1ccc2c(c1)Sc1cc3c(cc1B2c1c(C(C)C)cc(C(C)C)cc1C(C)C)B(c1c(C(C)C)cc(C(C)C)cc1C(C)C)c1ccccc1S3`, the photoluminescence quantum yield by setting is: (in Cc1ccccc1) 0.17; (in O=P(c1ccccc1)(c1ccccc1)c1ccc2oc3ccc(P(=O)(c4ccccc4)c4ccccc4)cc3c2c1) 0.93.
Consider `N#Cc1nc2cnc(N)nc2n1Cc1ccccc1`, for which the photoluminescence quantum yield (in C1COCCO1) came out at 0.34; the photoluminescence quantum yield (in CC#N) turned out to be 0.31; the photoluminescence quantum yield (in CO) was determined as 0.64; the photoluminescence quantum yield (in ClCCl) is 0.2; the photoluminescence quantum yield (in O) worked out at 0.88.
